Laboratory results as given in the NIST ThermoML archive (doi:10.1021/je034062r).

Assay: xn = mol fraction of the nth substance listed
Details: for mass density: Liquid; for surface tension liquid-gas: Pendant drop shape

C1CCCCC1 [cyclohexane] + CCCCCCC
Details	mass density [kg/m3]	surface tension liquid-gas [mN/m]
283.15 K, x1 = 0.1022	699.2	–
283.15 K, x1 = 0.2022	706.5	–
283.15 K, x1 = 0.3078	714.6	–
283.15 K, x1 = 0.401	722.3	–
283.15 K, x1 = 0.4984	730.8	–
283.15 K, x1 = 0.7003	750.8	–
283.15 K, x1 = 0.8054	761.5	–
283.15 K, x1 = 0.898	774.2	–
283.15 K, x1 = 1	787.9	–
287.81 K, x1 = 0.1022	–	20.91
287.81 K, x1 = 0.2022	–	21.31
287.81 K, x1 = 0.3078	–	21.65
287.81 K, x1 = 0.401	–	21.88
287.81 K, x1 = 0.4984	–	22.27
287.81 K, x1 = 0.6002	–	22.62
287.81 K, x1 = 0.7003	–	23.08
287.81 K, x1 = 0.8054	–	23.84
287.81 K, x1 = 0.898	–	24.39
287.81 K, x1 = 1	–	25.34
288.15 K, x1 = 0.1022	695	–
288.15 K, x1 = 0.2022	702.2	–
288.15 K, x1 = 0.3078	710.4	–
288.15 K, x1 = 0.401	717.9	–
288.15 K, x1 = 0.4984	726.5	–
288.15 K, x1 = 0.7003	746.4	–
288.15 K, x1 = 0.8054	758	–
288.15 K, x1 = 0.898	769.7	–
288.15 K, x1 = 1	783.2	–
293.15 K, x1 = 0.1022	690.8	–
293.15 K, x1 = 0.2022	698	–
293.15 K, x1 = 0.3078	706.1	–
293.15 K, x1 = 0.401	713.6	–
293.15 K, x1 = 0.4984	722.2	–
293.15 K, x1 = 0.7003	742	–
293.15 K, x1 = 0.8054	753.5	–
293.15 K, x1 = 0.898	765.1	–
293.15 K, x1 = 1	778.6	–
297.82 K, x1 = 0.1022	–	19.95
297.82 K, x1 = 0.2022	–	20.25
297.82 K, x1 = 0.3078	–	20.52
297.82 K, x1 = 0.401	–	20.9
297.82 K, x1 = 0.4984	–	21.21
297.82 K, x1 = 0.6002	–	21.57
297.82 K, x1 = 0.7003	–	22.14
297.82 K, x1 = 0.8054	–	22.72
297.82 K, x1 = 0.898	–	23.32
297.82 K, x1 = 1	–	24.2
298.15 K, x1 = 0.1022	686.5	–
298.15 K, x1 = 0.2022	693.6	–
298.15 K, x1 = 0.3078	701.7	–
298.15 K, x1 = 0.401	709.2	–
298.15 K, x1 = 0.4984	717.8	–
298.15 K, x1 = 0.6002	725.6	–
298.15 K, x1 = 0.7003	737.5	–
298.15 K, x1 = 0.8054	749	–
298.15 K, x1 = 0.898	760.5	–
298.15 K, x1 = 1	773.9	–
303.15 K, x1 = 0.1022	682.2	–
303.15 K, x1 = 0.2022	689.3	–
303.15 K, x1 = 0.3078	697.4	–
303.15 K, x1 = 0.401	704.8	–
303.15 K, x1 = 0.4984	713.3	–
303.15 K, x1 = 0.6002	722	–
303.15 K, x1 = 0.7003	733	–
303.15 K, x1 = 0.8054	744.4	–
303.15 K, x1 = 0.898	755.8	–
303.15 K, x1 = 1	769.2	–
307.86 K, x1 = 0.1022	–	18.91
307.86 K, x1 = 0.2022	–	19.25
307.86 K, x1 = 0.3078	–	19.58
307.86 K, x1 = 0.401	–	19.87
307.86 K, x1 = 0.4984	–	20.19
307.86 K, x1 = 0.6002	–	20.53
307.86 K, x1 = 0.7003	–	21.06
307.86 K, x1 = 0.8054	–	21.64
307.86 K, x1 = 0.898	–	22.18
307.86 K, x1 = 1	–	23.02
308.15 K, x1 = 0.1022	677.8	–
308.15 K, x1 = 0.2022	685	–
308.15 K, x1 = 0.3078	693	–
308.15 K, x1 = 0.401	700.4	–
308.15 K, x1 = 0.4984	708.9	–
308.15 K, x1 = 0.6002	718.1	–
308.15 K, x1 = 0.7003	728.4	–
308.15 K, x1 = 0.8054	739.8	–
308.15 K, x1 = 0.898	751.2	–
308.15 K, x1 = 1	764.4	–
313.15 K, x1 = 0.1022	673.5	–
313.15 K, x1 = 0.2022	680.6	–
313.15 K, x1 = 0.3078	688.6	–
313.15 K, x1 = 0.401	696	–
313.15 K, x1 = 0.4984	704.4	–
313.15 K, x1 = 0.6002	713.8	–
313.15 K, x1 = 0.7003	723.9	–
313.15 K, x1 = 0.8054	735.2	–
313.15 K, x1 = 0.898	746.5	–
313.15 K, x1 = 1	759.6	–
317.86 K, x1 = 0.1022	–	17.91
317.86 K, x1 = 0.2022	–	18.36
317.86 K, x1 = 0.3078	–	18.53
317.86 K, x1 = 0.401	–	18.82
317.86 K, x1 = 0.4984	–	19.16
317.86 K, x1 = 0.6002	–	19.55
317.86 K, x1 = 0.7003	–	20.01
317.86 K, x1 = 0.8054	–	20.56
317.86 K, x1 = 0.898	–	21.07
317.86 K, x1 = 1	–	21.84
318.15 K, x1 = 0.1022	669	–
318.15 K, x1 = 0.2022	676.1	–
318.15 K, x1 = 0.3078	684.1	–
318.15 K, x1 = 0.401	691.5	–
318.15 K, x1 = 0.4984	699.9	–
318.15 K, x1 = 0.6002	709.3	–
318.15 K, x1 = 0.7003	719.3	–
318.15 K, x1 = 0.8054	730.6	–
318.15 K, x1 = 0.898	741.8	–
318.15 K, x1 = 1	754.8	–
323.15 K, x1 = 0.1022	664.6	–
323.15 K, x1 = 0.2022	671.7	–
323.15 K, x1 = 0.3078	679.6	–
323.15 K, x1 = 0.401	686.9	–
323.15 K, x1 = 0.4984	695.4	–
323.15 K, x1 = 0.6002	704.7	–
323.15 K, x1 = 0.7003	714.7	–
323.15 K, x1 = 0.8054	725.9	–
323.15 K, x1 = 0.898	737.1	–
323.15 K, x1 = 1	750	–
327.88 K, x1 = 0.1022	–	16.83
327.88 K, x1 = 0.2022	–	17.05
327.88 K, x1 = 0.3078	–	17.41
327.88 K, x1 = 0.401	–	17.52
327.88 K, x1 = 0.4984	–	17.99
327.88 K, x1 = 0.6002	–	18.44
327.88 K, x1 = 0.7003	–	18.95
327.88 K, x1 = 0.8054	–	19.48
327.88 K, x1 = 0.898	–	19.98
327.88 K, x1 = 1	–	20.71
328.15 K, x1 = 0.1022	660.1	–
328.15 K, x1 = 0.2022	667.2	–
328.15 K, x1 = 0.3078	675.1	–
328.15 K, x1 = 0.401	682.4	–
328.15 K, x1 = 0.4984	691	–
328.15 K, x1 = 0.6002	700.1	–
328.15 K, x1 = 0.7003	710	–
328.15 K, x1 = 0.8054	721.2	–
328.15 K, x1 = 0.898	732.3	–
328.15 K, x1 = 1	745.2	–
333.15 K, x1 = 0.1022	655.5	–
333.15 K, x1 = 0.3078	670.5	–
333.15 K, x1 = 0.401	677.8	–
333.15 K, x1 = 0.4984	686.2	–
333.15 K, x1 = 0.6002	695.5	–
333.15 K, x1 = 0.7003	705.3	–
333.15 K, x1 = 0.8054	716.5	–
333.15 K, x1 = 0.898	727.5	–
333.15 K, x1 = 1	740.3	–
